Columns and labels:
Format in all cases: functional
[1] = system: Mycobacterium tuberculosis; experiment: Antimycobacterial activity against Mycobacterium tuberculosis H37Rv at 6.25 ug/ml
Escherichia coli = experiment: Antibacterial activity against Escherichia coli by […]
Staphylococcus aureus = experiment: Antibacterial activity against Staphylococcus aureus by […]

Cc1ccc2c(Cl)c(C)c(N3CCCCC3)nc2n1 was tested, and the “-log(inh/100-inh)” value [1] was -0.6886.
In the case of CCOC(=O)N1CCN(c2cc(-c3ccccc3)c3ccc(N4CCNCC4)nc3n2)CC1, the “inhibition zone (IZ)” value (Escherichia coli) is reported as 25 mm, the “-log(inh/100-inh)” value [1] is reported as 1.0607 and the “inhibition zone (IZ)” value (Staphylococcus aureus) is reported as 23 mm.
In the case of CCOC(=O)N1CCN(c2nc3nc(N4CCOCC4)ccc3cc2-c2ccccc2)CC1, the “inhibition zone (IZ)” value (Escherichia coli) is reported as 17 mm, the “-log(inh/100-inh)” value [1] is reported as 0.2499 and the “inhibition zone (IZ)” value (Staphylococcus aureus) is reported as 13 mm.
In the case of CCOC(=O)N1CCN(c2nc3nc(Cl)ccc3cc2-c2ccccc2)CC1, the “inhibition zone (IZ)” value (Escherichia coli) is reported as 24 mm and the “-log(inh/100-inh)” value [1] is reported as 0.3076.
COC(=O)N1CCN(c2nc3nc(OC)ccc3cc2-c2ccccc2)CC1 was tested, and the “inhibition zone (IZ)” value (Escherichia coli) was 12 mm, the “-log(inh/100-inh)” value [1] was -0.1224 and the “inhibition zone (IZ)” value (Staphylococcus aureus) was 16 mm.
In the case of c1ccc(-c2cc3ccc(N4CCNCC4)nc3nc2N2CCNCC2)cc1, the “inhibition zone (IZ)” value (Escherichia coli) is reported as 12 mm, the “-log(inh/100-inh)” value [1] is reported as 0.432 and the “inhibition zone (IZ)” value (Staphylococcus aureus) is reported as 14 mm.
With c1ccc(-c2cc3ccc(N4CCCCC4)nc3nc2N2CCNCC2)cc1 the “inhibition zone (IZ)” value (Escherichia coli) was 18 mm and the “-log(inh/100-inh)” value [1] was 0.8653.
In the case of COc1ccc2cc(-c3ccccc3)c(N3CCNCC3)nc2n1, the “inhibition zone (IZ)” value (Escherichia coli) is reported as 16 mm, the “-log(inh/100-inh)” value [1] is reported as 0.3076 and the “inhibition zone (IZ)” value (Staphylococcus aureus) is reported as 12 mm.
With Cc1ccc2c(Cl)c(C)c(Cl)nc2n1 the “-log(inh/100-inh)” value [1] was -1.9956.
Cc1ccc2c(Cl)c(Cc3ccccc3)c(C)nc2n1 was tested, and the “-log(inh/100-inh)” value [1] was 0.0872.
Cc1ccc2c(Cl)c(Cc3ccccc3)c(N3CCOCC3)nc2n1 was tested, and the “-log(inh/100-inh)” value [1] was -0.6021.
Cc1ccc2c(Cl)c(Cc3ccccc3)c(N3CCCCC3)nc2n1 was tested, and the “-log(inh/100-inh)” value [1] was -0.1581.
For Cc1ccc2c(N3CCOCC3)c(C)c(N3CCCCC3)nc2n1, the “-log(inh/100-inh)” value [1] was -0.908.
In the case of Cc1ccc2c(N3CCOCC3)c(Cc3ccccc3)c(N3CCCCC3)nc2n1, the “-log(inh/100-inh)” value [1] is reported as -0.6021.
With Cc1ccc2c(N3CCCCC3)c(Cc3ccccc3)c(N3CCCCC3)nc2n1 the “-log(inh/100-inh)” value [1] was 1.3802.
With Oc1ccc2c(Cl)cc(N3CCOCC3)nc2n1 the “-log(inh/100-inh)” value [1] was -1.6902.
Clc1ccc2c(Cl)cc(N3CCOCC3)nc2n1 was tested, and the “-log(inh/100-inh)” value [1] was -0.2126.
In the case of Clc1cc(N2CCOCC2)nc2nc(N3CCCCC3)ccc12, the “-log(inh/100-inh)” value [1] is reported as -0.432.
In the case of c1cc2c(N3CCOCC3)cc(N3CCOCC3)nc2nc1N1CCOCC1, the “-log(inh/100-inh)” value [1] is reported as -0.908.
In the case of c1cc2c(N3CCCCC3)cc(N3CCOCC3)nc2nc1N1CCCCC1, the “-log(inh/100-inh)” value [1] is reported as -0.1224.
Oc1ccc2c(N3CCOCC3)cc(N3CCOCC3)nc2n1 was tested, and the “-log(inh/100-inh)” value [1] was -1.0048.
For Clc1ccc2c(N3CCOCC3)cc(N3CCOCC3)nc2n1, the “-log(inh/100-inh)” value [1] was -1.9956.
For Clc1ccc2c(N3CCCCC3)cc(N3CCOCC3)nc2n1, the “-log(inh/100-inh)” value [1] was -1.0607.
In the case of c1cc2c(N3CCCCC3)cc(N3CCOCC3)nc2nc1N1CCOCC1, the “-log(inh/100-inh)” value [1] is reported as -0.908.
In the case of CC(=O)Nc1ccc2c(Cl)cc(N3CCCCC3)nc2n1, the “-log(inh/100-inh)” value [1] is reported as -1.0607.
With Nc1ccc2c(Cl)cc(N3CCCCC3)nc2n1 the “-log(inh/100-inh)” value [1] was -0.2126.
With Nc1ccc2c(N3CCCCC3)cc(N3CCNCC3)nc2n1 the “-log(inh/100-inh)” value [1] was 0.4102.
Nc1ccc2c(N3CCCCC3)cc(N3CCOCC3)nc2n1 was tested, and the “-log(inh/100-inh)” value [1] was -1.195.
In the case of O=C(CCc1ccc2c(-c3ccccc3)cc(O)nc2n1)OCCN1CCNCC1, the “-log(inh/100-inh)” value [1] is reported as -0.7202.
Oc1cc(-c2ccccc2)c2ccc(N3CCNCC3)nc2n1 was tested, and the “-log(inh/100-inh)” value [1] was -0.908.
With c1ccc(-c2cc(N3CCCCC3)nc3nc(N4CCCCC4)ccc23)cc1 the “inhibition zone (IZ)” value (Escherichia coli) was 28 mm, the “-log(inh/100-inh)” value [1] was 1.9956 and the “inhibition zone (IZ)” value (Staphylococcus aureus) was 14 mm.
c1ccc(-c2cc(N3CCOCC3)nc3nc(N4CCOCC4)ccc23)cc1 was tested, and the “inhibition zone (IZ)” value (Staphylococcus aureus) was 12 mm.
In the case of c1ccc(-c2cc(CCN3CCNCC3)nc3nc(CCN4CCNCC4)ccc23)cc1, the “inhibition zone (IZ)” value (Escherichia coli) is reported as 12 mm, the “-log(inh/100-inh)” value [1] is reported as 0.6297 and the “inhibition zone (IZ)” value (Staphylococcus aureus) is reported as 12 mm.
In the case of c1cc(N2CCNCC2)ccc1-c1ccc2ccc(-c3ccc(N4CCNCC4)cc3)nc2n1, the “inhibition zone (IZ)” value (Escherichia coli) is reported as 18 mm, the “-log(inh/100-inh)” value [1] is reported as -0.0522 and the “inhibition zone (IZ)” value (Staphylococcus aureus) is reported as 12 mm.
Nc1ccc2c(-c3ccccc3)cc(N3CCCCC3)nc2n1 was tested, and the “inhibition zone (IZ)” value (Escherichia coli) was 20 mm, the “-log(inh/100-inh)” value [1] was 1.0048 and the “inhibition zone (IZ)” value (Staphylococcus aureus) was 14 mm.
In the case of Nc1ccc2c(-c3ccccc3)cc(N3CCOCC3)nc2n1, the “inhibition zone (IZ)” value (Escherichia coli) is reported as 33 mm, the “-log(inh/100-inh)” value [1] is reported as -0.0522 and the “inhibition zone (IZ)” value (Staphylococcus aureus) is reported as 20 mm.
Nc1ccc2c(-c3ccccc3)cc(CCN3CCNCC3)nc2n1 was tested, and the “inhibition zone (IZ)” value (Escherichia coli) was 36 mm, the “-log(inh/100-inh)” value [1] was 0.3475 and the “inhibition zone (IZ)” value (Staphylococcus aureus) was 16 mm.
With Nc1ccc(-c2ccc3ccc(-c4ccc(N5CCNCC5)cc4)nc3n2)cc1 the “inhibition zone (IZ)” value (Escherichia coli) was 32 mm, the “-log(inh/100-inh)” value [1] was 1.195 and the “inhibition zone (IZ)” value (Staphylococcus aureus) was 16 mm.
Oc1ccc2c(-c3ccccc3)cc(N3CCCCC3)nc2n1 was tested, and the “inhibition zone (IZ)” value (Staphylococcus aureus) was 24 mm.
For Oc1ccc2c(-c3ccccc3)cc(N3CCOCC3)nc2n1, the “inhibition zone (IZ)” value (Escherichia coli) was 26 mm and the “inhibition zone (IZ)” value (Staphylococcus aureus) was 20 mm.
Oc1ccc2c(-c3ccccc3)cc(CCN3CCNCC3)nc2n1 was tested, and the “-log(inh/100-inh)” value [1] was -0.3889 and the “inhibition zone (IZ)” value (Staphylococcus aureus) was 12 mm.
For Oc1ccc(-c2ccc3c(-c4ccccc4)cc(-c4ccc(N5CCNCC5)cc4)nc3n2)cc1, the “inhibition zone (IZ)” value (Escherichia coli) was 14 mm, the “-log(inh/100-inh)” value [1] was -0.3274 and the “inhibition zone (IZ)” value (Staphylococcus aureus) was 14 mm.
With Clc1ccc2c(-c3ccccc3)cc(N3CCCCC3)nc2n1 the “-log(inh/100-inh)” value [1] was 0.368 and the “inhibition zone (IZ)” value (Staphylococcus aureus) was 26 mm.
With Clc1ccc2c(-c3ccccc3)cc(N3CCOCC3)nc2n1 the “inhibition zone (IZ)” value (Escherichia coli) was 12 mm, the “-log(inh/100-inh)” value [1] was -0.2499 and the “inhibition zone (IZ)” value (Staphylococcus aureus) was 18 mm.
For Clc1ccc2c(-c3ccccc3)cc(CCN3CCNCC3)nc2n1, the “inhibition zone (IZ)” value (Escherichia coli) was 16 mm and the “-log(inh/100-inh)” value [1] was 0.3274.
In the case of Clc1ccc(-c2ccc3c(-c4ccccc4)cc(-c4ccc(N5CCNCC5)cc4)nc3n2)cc1, the “inhibition zone (IZ)” value (Escherichia coli) is reported as 14 mm, the “-log(inh/100-inh)” value [1] is reported as 0.0871 and the “inhibition zone (IZ)” value (Staphylococcus aureus) is reported as 22 mm.
With COc1ccc2c(-c3ccccc3)cc(N3CCCCC3)nc2n1 the “inhibition zone (IZ)” value (Escherichia coli) was 20 mm and the “-log(inh/100-inh)” value [1] was 0.7533.
For COc1ccc2c(-c3ccccc3)cc(N3CCOCC3)nc2n1, the “inhibition zone (IZ)” value (Escherichia coli) was 24 mm and the “-log(inh/100-inh)” value [1] was -0.2689.
COc1ccc2c(-c3ccccc3)cc(CCN3CCNCC3)nc2n1 was tested, and the “-log(inh/100-inh)” value [1] was 0.4102.
COc1ccc(-c2ccc3ccc(-c4ccc(N5CCNCC5)cc4)nc3n2)cc1 was tested, and the “-log(inh/100-inh)” value [1] was 0.7884 and the “inhibition zone (IZ)” value (Staphylococcus aureus) was 28 mm.
For c1ccc(-c2cc3ccc(N4CCCCC4)nc3nc2N2CCCCC2)cc1, the “inhibition zone (IZ)” value (Escherichia coli) was 20 mm, the “-log(inh/100-inh)” value [1] was 1.9956 and the “inhibition zone (IZ)” value (Staphylococcus aureus) was 16 mm.
With O=[N+]([O-])c1cc2cc(-c3ccccc3)c(N3CCCCC3)nc2nc1N1CCCCC1 the “-log(inh/100-inh)” value [1] was 0.5754 and the “inhibition zone (IZ)” value (Staphylococcus aureus) was 30 mm.
With Nc1cc2cc(-c3ccccc3)c(N3CCCCC3)nc2nc1N1CCCCC1 the “inhibition zone (IZ)” value (Escherichia coli) was 26 mm and the “-log(inh/100-inh)” value [1] was 0.3889.
CCOC(=O)N1CCN(c2ccc3cc(-c4ccccc4)c(N4CCCCC4)nc3n2)CC1 was tested, and the “inhibition zone (IZ)” value (Escherichia coli) was 18 mm, the “-log(inh/100-inh)” value [1] was 1.0048 and the “inhibition zone (IZ)” value (Staphylococcus aureus) was 15 mm.
In the case of c1ccc(-c2cc3ccc(N4CCNCC4)nc3nc2N2CCCCC2)cc1, the “inhibition zone (IZ)” value (Escherichia coli) is reported as 14 mm, the “-log(inh/100-inh)” value [1] is reported as 0.908 and the “inhibition zone (IZ)” value (Staphylococcus aureus) is reported as 18 mm.
In the case of c1ccc(-c2cc3ccc(N4CCOCC4)nc3nc2N2CCCCC2)cc1, the “inhibition zone (IZ)” value (Escherichia coli) is reported as 26 mm, the “-log(inh/100-inh)” value [1] is reported as 0.6886 and the “inhibition zone (IZ)” value (Staphylococcus aureus) is reported as 22 mm.
For Nc1ccc2cc(-c3ccccc3)c(N3CCCCC3)nc2n1, the “-log(inh/100-inh)” value [1] was 0.1581 and the “inhibition zone (IZ)” value (Staphylococcus aureus) was 18 mm.
CCOC(=O)N1CCN(c2ccc3cc(-c4ccccc4)c(N4CCN(C(=O)OCC)CC4)nc3n2)CC1 was tested, and the “inhibition zone (IZ)” value (Escherichia coli) was 18 mm, the “-log(inh/100-inh)” value [1] was -0.0348 and the “inhibition zone (IZ)” value (Staphylococcus aureus) was 17 mm.
